Holding throughout (set-up): from tissue; host or cells: pooled human liver microsomes (n=200 donors)
For data set [1], the target named is T1, CYP2D6 (Homo sapiens, UniProt P10635). In words: Direct and time-dependent CYP inhibition, pooled human liver microsomes. The format is in vitro ADME. As for the experimental part: (§1) “mM^”=millimolar. CYP induction was evaluated using cultured human hepatocytes (from 3 donors) treated once daily for 3 days with RE/R concentrations to […].
(§2) The competitive inhibition of specific CYP isoforms was investigated for RVT-1201 and KAR5417 in human liver microsomes (HLM) (XT155056). Of the […] evaluated in vitro (CYP1A2, CYP2B6, CYP2C8, CYP2C9, CYP2D6, CYP3A4, CYP3A5), RVT-1201 IC50 estimates were determined for CYP2B6, CYP2C8 and CYP3A4 only. […] For each IC50 estimate, substrate concentration and Km were used to estimate RVT-1201 and KAR5417 Ki.
For orientation: Microsomes from liver hold many membrane-bound enzymes, among them those of drug oxidation.

In data set [2] the target is T2, CYP2B6 (Homo sapiens, UniProt P20813).
T2 sequence (P20813 1-491): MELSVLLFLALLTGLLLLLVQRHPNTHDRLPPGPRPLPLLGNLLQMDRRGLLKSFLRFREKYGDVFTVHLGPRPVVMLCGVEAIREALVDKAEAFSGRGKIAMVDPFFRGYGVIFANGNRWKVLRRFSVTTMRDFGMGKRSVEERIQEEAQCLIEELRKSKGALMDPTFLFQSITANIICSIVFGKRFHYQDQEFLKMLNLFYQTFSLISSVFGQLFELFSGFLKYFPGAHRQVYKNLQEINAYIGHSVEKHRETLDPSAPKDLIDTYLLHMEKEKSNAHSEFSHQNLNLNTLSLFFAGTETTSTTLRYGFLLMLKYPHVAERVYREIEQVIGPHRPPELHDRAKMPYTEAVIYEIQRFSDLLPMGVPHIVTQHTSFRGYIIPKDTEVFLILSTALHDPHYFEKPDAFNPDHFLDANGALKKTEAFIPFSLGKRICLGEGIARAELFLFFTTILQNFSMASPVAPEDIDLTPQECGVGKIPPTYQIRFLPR
The data set is described as above. The format is in vitro ADME. Conditions: for IC50: human liver microsomes, read-out: In vitro IC50, direct inhibition, CYP2B6. As for the experimental part:
as §1, §2

For the next data set, the target named is CYP2C9 (Homo sapiens, UniProt P11712). Described as above. It counts as in vitro ADME. Conditions: for IC50: human liver microsomes, read-out: In vitro IC50, direct inhibition, CYP2C9. As for the experimental part:
as §1, §2

For data set [3], the target named is T1, CYP2D6. In words: FDA guidance DDI risk assessment, perpetrator potential. Conditions: predicted @ 600 mg BID. As for the experimental part: (§3) The potential for rodatristat ethyl or rodatristat to be perpetrators of drug-drug interactions was assessed across in vitro CYP and transporter studies (Tables 1-4). […] This analysis was performed to assess the potential for clinically meaningful DDIs as recommended in FDA Draft Guidance: “In Vitro Metabolism- and Transporter-Mediated Drug-Drug Interaction Studies Guidance for Industry”; October 2017 (FDA, 2017).
(§4) R1 and R3 values using free (non-protein bound) drug levels were calculated based on plasma protein binding (fraction bound, fb) of rodatristat ethyl (0.995) and rodatristat (0.991). The FDA Guidance is set forth In Vitro Metabolism- and Transporter-Mediated Drug-Drug Interaction Studies Guidance for Industry (2017). […] Parameters for the prediction are set forth below in Tables 5 and 6.

The next data set concerns the target CYP2C19 (Homo sapiens, UniProt P33261). The data set is described as above. Conditions: predicted @ 600 mg BID. As for the experimental part:
as §3, §4

A further data set addresses T3, CYP1A2 (Homo sapiens, UniProt P05177).
T3 sequence (P05177 1-516): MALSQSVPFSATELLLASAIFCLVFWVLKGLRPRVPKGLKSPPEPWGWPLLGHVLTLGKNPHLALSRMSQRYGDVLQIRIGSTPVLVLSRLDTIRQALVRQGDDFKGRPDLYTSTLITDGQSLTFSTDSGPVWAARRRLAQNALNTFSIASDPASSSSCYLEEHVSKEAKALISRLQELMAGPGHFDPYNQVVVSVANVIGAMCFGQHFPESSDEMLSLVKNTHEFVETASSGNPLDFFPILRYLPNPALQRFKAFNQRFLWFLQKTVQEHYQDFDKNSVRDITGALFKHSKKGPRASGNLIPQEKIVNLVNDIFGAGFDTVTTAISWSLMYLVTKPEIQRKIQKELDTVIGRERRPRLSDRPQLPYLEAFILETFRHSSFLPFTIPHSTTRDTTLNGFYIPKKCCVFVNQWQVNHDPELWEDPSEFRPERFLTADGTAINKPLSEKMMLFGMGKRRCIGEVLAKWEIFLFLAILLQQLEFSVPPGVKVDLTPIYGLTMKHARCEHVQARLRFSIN
The data set is described as above. Conditions: predicted @ 600 mg BID. As for the experimental part:
as §3, §4

For data set [4], the target named is T2, CYP2B6. The description is as above. Conditions: predicted @ 600 mg BID. As for the experimental part: as §3, §4
Where [5] appears, read: human, pooled human liver microsomes, 30 μM, range given across CYPs 2B6, 2C9 and 3A4/5.

CYP2C9, sequence (P11712 whole entry): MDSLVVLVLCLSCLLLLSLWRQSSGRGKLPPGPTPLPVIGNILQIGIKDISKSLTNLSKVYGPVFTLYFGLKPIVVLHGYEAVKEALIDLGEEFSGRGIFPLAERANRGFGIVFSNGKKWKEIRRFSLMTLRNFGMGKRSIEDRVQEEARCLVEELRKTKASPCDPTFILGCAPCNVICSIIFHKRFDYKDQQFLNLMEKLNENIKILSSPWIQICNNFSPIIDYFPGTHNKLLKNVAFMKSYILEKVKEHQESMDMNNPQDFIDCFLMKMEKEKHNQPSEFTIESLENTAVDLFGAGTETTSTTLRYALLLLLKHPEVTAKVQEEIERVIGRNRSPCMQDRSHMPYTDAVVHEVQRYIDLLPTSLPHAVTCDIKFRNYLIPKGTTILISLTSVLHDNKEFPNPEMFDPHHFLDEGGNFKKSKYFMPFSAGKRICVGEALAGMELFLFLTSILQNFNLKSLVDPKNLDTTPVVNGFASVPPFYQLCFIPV
T1 sequence (P10635 whole entry, canonical isoform): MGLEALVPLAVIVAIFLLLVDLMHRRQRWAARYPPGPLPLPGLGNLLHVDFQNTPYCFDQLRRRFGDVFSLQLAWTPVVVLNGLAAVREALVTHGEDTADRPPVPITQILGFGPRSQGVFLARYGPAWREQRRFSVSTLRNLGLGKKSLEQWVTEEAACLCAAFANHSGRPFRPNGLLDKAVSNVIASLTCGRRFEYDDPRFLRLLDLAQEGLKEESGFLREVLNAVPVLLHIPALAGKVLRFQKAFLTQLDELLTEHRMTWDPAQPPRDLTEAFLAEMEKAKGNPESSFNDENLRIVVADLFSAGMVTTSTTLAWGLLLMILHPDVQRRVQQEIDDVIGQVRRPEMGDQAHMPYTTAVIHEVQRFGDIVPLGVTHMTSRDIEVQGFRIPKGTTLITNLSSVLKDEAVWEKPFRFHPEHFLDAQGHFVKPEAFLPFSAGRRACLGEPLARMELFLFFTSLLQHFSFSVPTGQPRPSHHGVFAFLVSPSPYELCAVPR
CYP2C19, sequence (P33261 whole entry): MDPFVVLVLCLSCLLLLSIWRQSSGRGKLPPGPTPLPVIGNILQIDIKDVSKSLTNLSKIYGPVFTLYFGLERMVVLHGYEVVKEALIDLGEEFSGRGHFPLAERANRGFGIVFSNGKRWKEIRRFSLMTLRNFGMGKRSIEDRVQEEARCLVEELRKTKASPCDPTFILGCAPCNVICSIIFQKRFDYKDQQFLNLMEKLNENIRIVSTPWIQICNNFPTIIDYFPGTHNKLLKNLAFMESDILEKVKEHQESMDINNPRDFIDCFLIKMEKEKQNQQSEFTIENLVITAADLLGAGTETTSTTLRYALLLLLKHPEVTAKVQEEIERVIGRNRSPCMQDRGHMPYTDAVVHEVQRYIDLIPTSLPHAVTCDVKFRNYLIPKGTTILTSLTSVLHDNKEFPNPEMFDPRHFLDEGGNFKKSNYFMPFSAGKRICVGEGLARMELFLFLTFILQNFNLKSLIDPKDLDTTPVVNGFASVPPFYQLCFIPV

By IC50 is commonly meant the midpoint of a concentration-inhibition curve. `CCOC(=O)[C@@H]1CC2(CCN(c3cc(O[C@H](c4ccc(Cl)cc4-c4ccccc4)C(F)(F)F)nc(N)n3)CC2)CN1` [Rodatristat ethyl, (S)-ethyl 8-(2-amino-6-((R)-1-(5-chloro-[1,1′-biphenyl]-2-yl)-2,2,2-trifluoroethoxy)pyrimidin-4-yl)-2,8-diazaspiro[4.5]decane-3-carboxylate]: the IC50 on CYP2D6 [1] (human liver microsomes, read-out: In vitro IC50, direct inhibition, CYP2D6) was > 30 µM; at CYP2B6 [2] it was 13 µM; at CYP2C9, > 30 µM. Further, at CYP2B6 [2] (predicted @ 600 mg BID, R1=1+(Imax,unbound/Ki)), the “Calculated R1 Value, CYP2B6” value is on record as <1.02. The “Direct inhibition of CYP2C9 (in words)” value on CYP2C9 is recorded as “Neither rodatristat ethyl nor rodatristat inhibit”. In addition, at CYP2D6 [3], the “Potential for interaction (perpetrator), CYP2D6” value is “No”. On CYP2C19, the “Potential for interaction (perpetrator), CYP2C19” value is reported as “No”. The “Potential for interaction (perpetrator), CYP1A2” value at CYP1A2 was “No”. Moreover, the “Potential for interaction (perpetrator), CYP2B6” value on CYP2B6 [4] is “Yes”.

For orientation: inhibition means the change of the read-out against control, counted positive when it falls. High values mean strong suppression, low ones little suppression. Turning to `Nc1nc(O[C@H](c2ccc(Cl)cc2-c2ccccc2)C(F)(F)F)cc(N2CCC3(CC2)CN[C@H](C(=O)O)C3)n1` [Rodatristat, (S)-8-(2-amino-6-((R)-1-(5-chloro-[1,1′-biphenyl]-2-yl)-2,2,2-trifluoroeth-oxy)pyrimidin-4-yl)-2,8-diazaspiro[4.5]decane-3-carboxylic acid], on CYP2D6 [1], the “Direct inhibition of CYP2D6 (in words)” value was “did not inhibit”. Also, the IC50 at CYP2B6 [2] and on CYP2C9 was > 30 µM throughout. The inhibition at 30 µM at CYP2B6 [2] (setting [5]) and at CYP2C9 (setting [5]) was 27 to 45% in each case. For the same compound, the “Direct inhibition of CYP2C9 (in words)” value on CYP2C9 was “Neither rodatristat ethyl nor rodatristat inhibit”. Further, the “Potential for interaction (perpetrator), CYP2D6” value at CYP2D6 [3] is “No”. Also, at CYP2C19, the “Potential for interaction (perpetrator), CYP2C19” value is “No”. Besides, at CYP1A2, the “Potential for interaction (perpetrator), CYP1A2” value is listed as “No”. For the same compound, at CYP2B6 [4], the “Potential for interaction (perpetrator), CYP2B6” value was “Yes”.

Source of the values: patent publication US20230074252A1, “DOSAGES AND METHODS FOR TREATING PULMONARY ARTERIAL HYPERTENSION WITH RODATRISTAT” (Altavant Sciences GmbH, priority 2020, published 2023).
